# Measured values taken from article PMC10619556, “Comprehensive Evaluation System for Post-Metabolic Activity of Potential Thyroid-Disrupting Chemicals” (Journal of Microbiology and Biotechnology, 2023).
# Structures can show the parent of a compound that is named as a salt. Where two headings read alike, the source gives them in different places.
# Columns and labels:
# [1] = Sprague-Dawley, rat, pH 7.4
# [2] = tested on: thyroid hormone receptor (THR); assay: hTRE_HeLa THR transcriptional activity (nano luciferase reporter) assay with rat liver S9 mixtures; assay type: cell-based, human; settings: hTRE_HeLa cells; for THR agonist classification (positive if >= 10% of activity of 100 nM T3): parent, inactive S9, phase I and phase I+II groups, before and after S9 reaction; for THR transcriptional activity after phase I+II reaction: phase I+II group
# Method: The hTRE_HeLa cell line, obtained from the MFDS, was used to detect thyroid hormone receptor (THR) agonists through transcriptional activation analysis, utilizing a stably modified thyroid receptor-reactive human cervical cancer cell line along with one plasmid from a nano luciferase reporter. For cell line maintenance, minimum essential media (MEM, Gibco, USA) supplemented with 10% FBS, 1% penicillin/streptomycin (P/S), and 1 ml Hygromycin B (InvivoGen, USA) was used. The hTRE_Hela cell line was conditioned and treated in test medium containing Phenol red free of MEM (Gibco) supplemented with 10% charcoal-stripped FBS (CS-FBS), 1% P/S, and 1 mL Hygromycin B. hTRE_HeLa cells were maintained in 37°C and 5% CO2 incubator. hTRE_HeLa cells were seeded with 5 × 10^3 cells per well in the 96-well plate for 24 h and treated with EDCs and S9 mixtures for 48 h.
# The S9 mixture for phase I metabolism was prepared with 0.1 mg/ml rat liver S9, 2 × 10^-3 M NADPH, 3 × 10^-2 M G-6-P, 5 × 10^-2 M MgCl2, and 3 units/ml G-6-PD. For phase I+II metabolism, 2 × 10^-2 M GSH, 5 × 10^-3 M UDPGA, and 2 × 10^-5 M PAPS were additionally included to the S9 mixture. […] The S9 mixtures were added to the aforementioned test medium to be diluted 10 times. After 24 h of seeding, hTRE_HeLa cells were treated with the S9 mixtures pre-incubated for 6 h and EDCs with different concentrations.
# The vehicle control (VC) included only 0.145% of DMSO containing 9 × 10^-12 M 9-cis-Retinoic acid. The final volume for each well was 100 μl. […] After treatment, 10 μl of treated medium was transferred to a new plate, to which 40 μl of test medium and 50 μl of Nano-Glo luciferase reagent (Promega, USA) were added. After a 10 min incubation, the luciferase activity was measured using a luminescence reader (Glomax Discover, Promega). For data analysis, relative transcriptional activity (RTA) of PC was set to 100%, and RTA of VCcontrol was set to 0%. The % to PC value of EDCs was calculated to (EDCs – VCtest) / (PC – VCcontrol). The VCtest was set to the VC for each test group. If the EDC was greater than or equal to 10% of PC, the EDC was determined to be a THR agonist-positive chemical. The data were described by the mean ± standard deviation.
# [3] = In vitro metabolic reaction using rat liver S9 fraction with LC-MS / GC-MS metabolic profiling; settings: for Metabolic rate (parent decreased by) after the reaction: rat liver S9, phase I+II biotransformation; for Metabollic rate: rat liver S9, phase I+II reaction vs inactivated S9 control, BDE28 and 4,4'-DIDBP by GC-MS, others by LC-MS
# [4] = concentration not given, RTA with 100 nM T3 (PC) = 100%
structure (smiles),measurement,setting,value
"CC12CC1(C)C(=O)N(c1cc(Cl)cc(Cl)c1)C2=O (centres unmarked) [Procymidone, procymidone]",Metabollic rate,[1],55%
same,THR agonist classification (positive if >= 10% of activity of 100 nM T3),[2],THR agonistic negative
"Cc1cc(OCC(=O)O)cc(C)c1Cc1ccc(O)c(C(C)C)c1 [GC-1, sobetirome]",Metabolic rate (parent decreased by) after the reaction,[3],15%
same,THR agonist classification (positive if >= 10% of activity of 100 nM T3),[2],THR agonistic positive
same,THR transcriptional activity after phase I reaction,"[2]; phase I group, concentration not given, RTA with 100 nM T3 (PC) = 100%",166.3 ± 12.0%
same,THR transcriptional activity after phase I+II reaction,[2]; [4],160.6 ± 8.6%
"O=C(O)CCc1cc(I)c(Oc2ccc(O)cc2)c(I)c1 [DITPA, 3,5-diiodothyropropionic acid]",Metabolic rate (parent decreased by) after the reaction,[3],29%
same,THR agonist classification (positive if >= 10% of activity of 100 nM T3),[2],THR agonistic positive
same,THR transcriptional activity after phase I+II reaction,[2]; [4],30.7 ± 1.8%
"O=C(c1ccc(O)cc1O)c1ccc(O)cc1O [BP-2, 2,2',4,4'-tetrahydroxybenzophenone]",Metabollic rate,[3],11%
same,THR agonist classification (positive if >= 10% of activity of 100 nM T3),[2],THR agonistic negative
"N[C@@H](Cc1cc(I)c(Oc2cc(I)c(O)c(I)c2)c(I)c1)C(=O)O [T4, Levothyroxine]",THR agonist classification (positive if >= 10% of activity of 100 nM T3),[2],THR agonistic positive
"C[C@]12CC[C@@H]3c4ccc(O)cc4CC[C@H]3[C@@H]1CC[C@@H]2O [E2, 17β-estradiol]",Metabollic rate,[3],44%
same,THR agonist classification (positive if >= 10% of activity of 100 nM T3),[2],THR agonistic negative
"CCCCc1oc2ccccc2c1C(=O)c1cc(I)c(OCCN(CC)CC)c(I)c1 [Amiodarone, amiodarone hydrochloride]",THR agonist classification (positive if >= 10% of activity of 100 nM T3),[2],THR agonistic negative
"CC(C)(c1ccc(O)cc1)c1ccc(O)cc1 [BPA, bisphenol A]",Metabollic rate,[1],52%
same,THR agonist classification (positive if >= 10% of activity of 100 nM T3),[2],THR agonistic negative
"Brc1ccc(Oc2ccc(Br)cc2Br)cc1 [BDE28, BDE No. 28]",Metabollic rate,[3],99%
same,THR agonist classification (positive if >= 10% of activity of 100 nM T3),[2],THR agonistic negative
"O=C(Nc1ccc(Oc2ccc(Cl)cc2)c(Cl)c1)c1cc(I)cc(I)c1O [Rafoxanide, rafoxanide]",Metabollic rate,[3],51%
same,THR agonist classification (positive if >= 10% of activity of 100 nM T3),[2],THR agonistic negative
"Ic1ccc(-c2ccc(I)cc2)cc1 [4,4’-DIDBP, 4,4'-diiodobiphenyl]",Metabollic rate,[1],82%
same,THR agonist classification (positive if >= 10% of activity of 100 nM T3),[2],THR agonistic negative
"Cc1cc(C(C#N)c2ccc(Cl)cc2)c(Cl)cc1NC(=O)c1cc(I)cc(I)c1O (centres unmarked) [Closantel, closantel]",Metabollic rate,[1],49%
same,THR agonist classification (positive if >= 10% of activity of 100 nM T3),[2],THR agonistic negative
"N[C@@H](Cc1cc(I)c(Oc2ccc(O)c(I)c2)c(I)c1)C(=O)O [T3, 3,3’,5-triiodo-L-thyronine]",Metabolic rate (parent decreased by) after the reaction,[3],3%
same,Induction compared to the VC value,[2]; T3 100 nM as positive control,≥ 4.8 fold
same,THR agonist classification (positive if >= 10% of activity of 100 nM T3),[2],THR agonistic positive
"COc1c(O)cc2oc(-c3ccc(O)cc3)cc(=O)c2c1O [Hispidulin, hispidulin]",THR agonist classification (positive if >= 10% of activity of 100 nM T3),[2],THR agonistic negative
